# Measured values taken from patent publication US20110293511A1, “SPECIFIC BINDING PROTEINS AND USES THEREOF” (priority 2009, published 2011).
# Test system: A431 xenografts
# Test: s.c. xenograft therapy study
# Format: in vivo, nude mice
# Conditions: preventative model; 0.1 mg mAb806; 400 μg AG1478
# Protocol: Tumor cells (3×10^6) in […] of PBS were inoculated subcutaneously into both flanks of 4-6 week old female nude mice (Animal Research Centre, Western Australia, Australia). […] Treatment was continued for a total of 6 doses, 3 times per week for 2 weeks. In the established model, treatment was started when tumors had reached a mean volume of 65±6.42 mm^3 (U87MG.Δ2-7), 84±9.07 mm3 (U87MG), 73±7.5 mm^3 (U87MG.wtEGFR) or 201±19.09 mm^3 (A431 tumors). Tumor volume in mm^3 was determined using the formula (length×width)/2, where length was the longest axis and width the measurement at right angles to the length (Clark et al. (2000) Therapeutic efficacy of anti-Lewis (y) humanized 3S 193 radioimmunotherapy in a breast cancer model: enhanced activity when combined with Taxol chemotherapy. Clin. Cancer Res. 6, 3621-3628). Data was expressed as mean tumor volume±S.E. for each treatment group. Statistical analysis was performed at given time points using Student's t-test. […]
# To establish xenografts, mice were injected subcutaneously into the right and left inguinal mammary line with 1×10^6 A431 adenocarcinoma cells or 1×10^6 U87MG.de2-7 glioma cells in 100 μl of PBS. Tumor volume (TV) was calculated by the formula [(length×width)/2] where length was the longest axis and width the measurement at right angles to length. […]
smiles,measurement,value
"COc1cc2ncnc(Nc3cccc(Cl)c3)c2cc1OC [AG1478, 4-(3-Chloroanilino)-6,7-dimethoxyquinazoline, reference compound]",reduction of tumor volume,significant reduction of tumor volume
